Among the test systems are HS 578T breast; MDA-MB-231 breast; PC-3 prostate; SF-295 CNS; UACC-62 melanoma; SN12C renal; SNB-19 CNS; RXF 393 renal; OVCAR-5 ovarian; DU-145 prostate; MCF7 breast.
What all share (test): NCI anticancer screen, dose series, 48 h

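Five concentrations, 48 hours, 96-well plates. At the TGI there is no net growth.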

On to `O=C1CCSCCC(=O)Nc2ccccc2N1`, for which the TGI with HS 578T breast, with MDA-MB-231 breast, in the test on PC-3 prostate, in the test on SF-295 CNS, in the test with UACC-62 melanoma and with SN12C renal was above 100 µM in each case. In addition, the TGI in the test with SNB-19 CNS, with RXF 393 renal, with OVCAR-5 ovarian and in the test with DU-145 prostate was above 100 µM in each case.

As for `COC(=O)[C@@H](NC(=O)N(Cc1ccccc1)C[C@H](CC(C)C)NC(=O)[C@@H](NC(=O)OC(C)(C)C)C(C)C)C(C)C`, the TGI with HS 578T breast, with MDA-MB-231 breast, with PC-3 prostate, with SF-295 CNS, in the test with UACC-62 melanoma and in the test with SNB-19 CNS was above 100 µM each time. Also, the TGI in the test with RXF 393 renal, in the test with OVCAR-5 ovarian and in the test on DU-145 prostate was above 100 µM each time.

With `NC(=O)c1cn(Cc2ccccc2)c(=O)n1Cc1ccccc1`, the TGI in the test with SF-295 CNS, in the test with UACC-62 melanoma, with SN12C renal, in the test with SNB-19 CNS, in the test on RXF 393 renal and in the test with OVCAR-5 ovarian was above 100 µM in each case.

As to `CC(=O)O[C@]12CCCCCC1C1(O)C(O)CCCCC12` (stereo partly drawn), the TGI in the test with SF-295 CNS, in the test on UACC-62 melanoma, with SN12C renal, in the test on SNB-19 CNS and in the test with RXF 393 renal was above 100 µM each time.

Turning to `COc1ccc2nc3cc(Cl)ccc3c(Sc3ccc(NC(C)=O)cc3)c2c1`, the TGI with SF-295 CNS is above 51.2 µM; in the test with UACC-62 melanoma it was above 42.1 µM; in the test with SN12C renal, above 25.6 µM; with SNB-19 CNS, above 26.4 µM; with RXF 393 renal it was above 27.9 µM; in the test with OVCAR-5 ovarian it was above 45.7 µM.

As to `Cc1ccc(NC(=O)C(=O)C2C(=O)NC(=O)NC2=O)cc1C`, the TGI with SF-295 CNS, with UACC-62 melanoma, in the test with SN12C renal, in the test with SNB-19 CNS, with RXF 393 renal and in the test with OVCAR-5 ovarian was above 100 µM in each case.

As to `CCOc1cc(NC(C)=O)ccc1C(=O)NNS(=O)(=O)c1ccc(NC(C)=O)cc1`, the TGI in the test with HS 578T breast, with PC-3 prostate, in the test on SF-295 CNS, in the test with MCF7 breast, with UACC-62 melanoma and with SN12C renal was above 100 µM throughout. Also, the TGI with SNB-19 CNS, with RXF 393 renal, in the test on OVCAR-5 ovarian and with DU-145 prostate was above 100 µM each time.

Turning to `CC1(C)OP(=O)(O)C=C1Sc1ccc([N+](=O)[O-])cc1[N+](=O)[O-]`, the TGI in the test on HS 578T breast, in the test on PC-3 prostate, with SF-295 CNS, in the test on MCF7 breast, in the test with UACC-62 melanoma and in the test on SN12C renal was above 100 µM in each case. Further, the TGI in the test on SNB-19 CNS, in the test with OVCAR-5 ovarian and in the test with DU-145 prostate was above 100 µM each time.

As to `O=C1c2c(Br)sc(Br)c2C(=O)C1(O)O`, the TGI in the test with HS 578T breast is above 100 µM; with PC-3 prostate, 51.1 µM; in the test with SF-295 CNS, above 100 µM; with MCF7 breast, above 100 µM; in the test with UACC-62 melanoma, above 100 µM; with SN12C renal it was above 100 µM. The TGI in the test on SNB-19 CNS was above 100 µM; with RXF 393 renal, 37.6 µM; with OVCAR-5 ovarian, 50.3 µM; in the test on DU-145 prostate it was above 100 µM.

For the compound `O=C1c2ccccc2C(=O)N1C/C=N/NS(=O)(=O)c1ccc(Br)cc1`, the TGI in the test on SF-295 CNS, in the test with UACC-62 melanoma, with SN12C renal, in the test on SNB-19 CNS and in the test with OVCAR-5 ovarian was above 100 µM each time.

`CN1CCN(/C(N)=C(\C#N)C(=O)Nc2ccc(Cl)cc2)CC1`: the TGI in the test on PC-3 prostate is above 100 µM; in the test with SF-295 CNS, above 100 µM; in the test with MCF7 breast, above 100 µM; in the test with UACC-62 melanoma, 58.9 µM; in the test on SN12C renal it was above 100 µM; with SNB-19 CNS, above 100 µM. Moreover, the TGI in the test on OVCAR-5 ovarian and in the test on DU-145 prostate was above 100 µM throughout.

Take `COc1ccc(/C(Cl)=C(\C#N)c2ccc(OC)c(OC)c2)cc1OC`: the TGI in the test on MDA-MB-231 breast, with PC-3 prostate, in the test with SF-295 CNS, with MCF7 breast, with UACC-62 melanoma and in the test on SN12C renal was above 100 µM each time. Moreover, the TGI with SNB-19 CNS, with RXF 393 renal, in the test with OVCAR-5 ovarian and in the test on DU-145 prostate was above 100 µM each time.

In the case of `COc1cc(-c2nnc3n2NC=C(C(=O)O)S3)cc(OC)c1OC`, the TGI in the test on SF-295 CNS, in the test with UACC-62 melanoma, in the test on SN12C renal, in the test with SNB-19 CNS, in the test with RXF 393 renal and with OVCAR-5 ovarian was above 100 µM in each case.

On to `CC(=O)OC(CCC1(C)OC1COc1ccc(CCNC(=O)C=C(C)C)cc1)C(C)(C)OC(C)=O` (stereo not drawn), for which the TGI in the test with HS 578T breast, in the test on MDA-MB-231 breast, in the test on PC-3 prostate, in the test with SF-295 CNS, in the test with UACC-62 melanoma and in the test on SN12C renal was above 100 µM each time. Besides, the TGI in the test on SNB-19 CNS is above 100 µM; in the test with RXF 393 renal it was above 31.6 µM; with OVCAR-5 ovarian, above 100 µM; in the test with DU-145 prostate it was above 100 µM.

Regarding `C1COCCSC2=C(SCCO1)SC(=C1SC3=C(SCCOCCOCCS3)S1)S2`, the TGI with SF-295 CNS, in the test on UACC-62 melanoma, in the test with SN12C renal, in the test on SNB-19 CNS, in the test on RXF 393 renal and with OVCAR-5 ovarian was above 100 µM in each case.

On to `O=C(NCCN1CCOCC1)c1ccc(I)cc1`, for which the TGI in the test with HS 578T breast, in the test on PC-3 prostate, with MCF7 breast, with UACC-62 melanoma, in the test with SN12C renal and in the test on SNB-19 CNS was above 100 µM in each case. Besides, the TGI in the test on OVCAR-5 ovarian was above 100 µM.

(Values after PubChem BioAssay (NCI).)
